Data: patent publication US11918570B2, “Method of treatment for prevention of glucocorticoid toxicity and/or enhancement of muscle regeneration via neutrophil elastase inhibition” (The Research Foundation for The State University of New York, priority 2020, dated 2024)
Entries after “also recorded” stand apart in the source; their conditions may differ.

Legend:
[1] = system: myoblasts from a mouse model of Duchenne muscular dystrophy (mdx4cv); assay: NE-induced myoblast death, mdx4cv mouse myoblasts treated with mouse NE; assay type: cell-based; conditions: FIG. 1E
Description: (§1) The number of live cells in each condition was counted and plotted as percentage of the number of live cells in the untreated (Control) condition.

[2] = system: dystrophin-deficient mice (mdx4cv strain); assay: Muscle mass: quadriceps wet weight and diaphragm cross-sectional area; assay type: in vivo, mouse; conditions: 12 weeks; for muscle mass (quadriceps wet weight): single agent, FIG. 15; for prednisolone-induced loss of muscle mass / muscle atrophy: in combination with prednisolone, FIGS. 15, 16
Description: FIG. 15 illustrates the wet weight of quadriceps muscle groups dissected from dystrophic mice at treatment start (baseline, Pre-Tr) or after the 12 week administration period, at the time of euthanasia.

[3] = system: dystrophin-deficient mice (mdx4cv strain); assay: Diaphragm strip tetanic force and residual force; assay type: in vivo, mouse
Human NE (hNE) = target: T1, Human NE (hNE) (Homo sapiens, UniProt P08246); assay: Human NE activity in vitro, cumulative elastase activity over time; assay type: biochemical; conditions: hNE incubated with various concentration of inhibitor; FIGS. 1A-1C
T1 sequence (P08246 30-267): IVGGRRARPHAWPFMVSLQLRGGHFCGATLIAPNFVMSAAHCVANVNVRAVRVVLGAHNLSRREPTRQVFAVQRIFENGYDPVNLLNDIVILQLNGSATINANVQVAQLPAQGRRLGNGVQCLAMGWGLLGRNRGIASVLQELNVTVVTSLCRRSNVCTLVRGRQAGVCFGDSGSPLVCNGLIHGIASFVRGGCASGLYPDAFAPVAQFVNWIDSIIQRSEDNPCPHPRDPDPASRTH
Procedure: In FIGS. 1A-1C Human NE (hNE) was incubated for the indicated amount of time (X-axis) either alone (Control, black line) or in the presence of various concentration of inhibitor, as indicated in each graph (colored lines). The cumulative elastase activity detected over time is plotted.
Several methods for measuring elastase enzymatic activity are known in the art. Merely by way of example, elastase activity can be determined by measuring the fluorescence emitted by a fluorigenic peptide such as MeOSuc-Ala-Ala-Pro-Val-AFC or Suc-Ala-Ala-Ala-AMC. Fluorescence may be measured, for example, using a plate reader. Other suitable assays for measuring elastase activity will be known to the skilled person. These may include measuring the product generated by incubation with a fluorescently labelled peptide such as 5-FAM-Arg-Glu-Ala-Val-Val-Tyr or 5-FAM-Ala-Ala-Ala-Phe-Tyr-Asp using an instrument that detects the size of the fluorescently labelled probe.

[4] = system: myoblasts isolated from a patient affected by Duchenne muscular dystrophy; assay: NE-induced myoblast death, DMD patient myoblasts treated with human NE; assay type: cell-based; conditions: for rescue of NE-induced myoblast death (number of live cells as percentage of untreated Control): DMD patient myoblasts treated with human NE, FIG. 1D; for effectiveness against human NE compared with mouse NE: comparison of FIG. 1D (hNE) and FIG. 1E (mNE)
Description: as §1

[5] = system: dystrophin-deficient mice (mdx4cv strain); assay: 12-week oral treatment of mdx4cv mice, overall efficacy; assay type: in vivo, mouse; conditions: elastase inhibitor orally, concomitantly with oral prednisolone
Procedure: FIG. 1F is a graphical illustration of data gathered from in vivo testing efficacy of a placebo, as compared to the elastase inhibitor Alvelestat, alone at various administration concentrations, and in combination with the glucocorticoid prednisolone at various administration concentrations. In this, and the following figures, the abbreviation “Plcb” refers to administration of a placebo, the abbreviation “Pred” refers to administration of prednisolone at 1 mg/kg/day, the abbreviation “Alv10” refers to the administration of the elastase inhibitor alvelestat at 10 mg/kg/day, and the abbreviation “Alv25” refers to the administration of the elastase inhibitor alvelestat at 25 mg/kg/day.
The administration of the various compounds occurred over a 12-week period, in a controlled randomized, double blinded test using dystrophin-deficient mice (mdx4cv strain). In FIG. 1F, beginning during the tenth week of the test, the mice were exposed to an activity wheel, with the cumulative distance plotted on the y-axis and the number of days spent with the exercise wheel plotted on the x-axis.

[6] = system: dystrophin-deficient mice (mdx4cv strain); assay: Myofiber necrosis (mIgG uptake on immunostained cryosections); assay type: in vivo, mouse; conditions: 12 weeks, FIG. 10
Procedure: In FIG. 10, myofiber necrosis was measured by calculating the percentage of myofibers that uptake mouse immunoglobulins (mIgG) on immunostained cryosections. IgG are normally present only in the blood and the extracellular matrix within tissues, but are uptaken by necrotic cells that have permeable plasma membranes due to cell damage damage.

[7] = system: dystrophin-deficient mice (mdx4cv strain); assay: Inflammation transcripts in muscle by RNA sequencing; assay type: in vivo, mouse; conditions: elastase inhibitor alone, 12 weeks; FIGS. 11A, 11B
Procedure: In FIGS. 11A and 11B, mRNA was extracted from muscles of the mice, then transcripts were quantified using next generation sequencing. […] Mdx^4cv mice were treated for 12 weeks with either placebo (Plcb, gray boxes) or prednisolone (1 mg/Kg/day, cyan boxes) alone or in combination with the elastase inhibitor alvelestat (Alv) at two different doses (10 mg/Kg/day, pink boxes; 25 mg/Kg/day, purple boxes). Each box-and-whiskers graph represent the levels of a marker of the immune response detected by RNA sequencing (n=6 per treatment group, Y-axis scale on the left). The overlayed line graphs show the effect size of each treatment vs Plcb calculated and plotted as Cohen's d (Y-axis scale on the right). Significance of each treatment vs Plcb: ***=p<0.001, **=p<0.01, *=p<0.05.

[8] = system: dystrophin-deficient mice (mdx4cv strain); assay: Muscle fibrosis, Sirius Red staining of gastrocnemius cryosections; assay type: in vivo, mouse; conditions: 12 weeks, FIG. 13
Procedure: FIG. 13 illustrates fibrosis levels of the various cohorts, assessed on cryosections of gastrocnemius muscles from the mice, which were stained with Sirius Red to detect fibrillar collagen. Untreated dystrophic mice were euthanized at the age when treatments start (Pre-tr) and used as baseline for disease progression. Images were analyzed for their fluorescence intensity (Sirius red emits fluorescence in the yellow-red band of the light spectrum) as a measure of collagen abundance per unit area (e.g. per pixel), which was multiplied by the total Sirius red+ area as a proxy for 3D evaluation of fibrillar collagen content.

[9] = system: dystrophin-deficient mice (mdx4cv strain); assay: Serum muscle creatine kinase (mCK) activity; assay type: in vivo, mouse; conditions: 12 weeks; FIG. 6
Description: FIG. 6 is a graphical illustration of muscle creatine kinase (mCK) activity for various cohorts of tested mice (including mice pre-treatment with any elastase inhibitor or glucocorticoid) at the conclusion of the 12 week administration period. FIG. 7 is a graphical illustration of MyoD protein levels for various cohorts of tested mice (including mice pre-treatment with any elastase inhibitor or glucocorticoid) at the conclusion of the 12 week administration period. FIG. 8 is a graphical illustration of liver pathology scores for various cohorts of tested mice (including mice pre-treatment, with any elastase inhibitor or glucocorticoid) at the conclusion of the 12 week administration period.

Structure (SMILES) | rescue of NE-induced myoblast death (number of live cells as percentage of untreated Control) [1] | muscle mass (quadriceps wet weight) [2] | inhibiting human NE activity in vitro (Human NE (hNE)) | rescue of NE-induced myoblast death (number of live cells as percentage of untreated Control) [4] | effectiveness against human NE compared with mouse NE [4] | also measured
CC(=O)C1=C(C)N(c2cccc(C(F)(F)F)c2)C(=O)N[C@@H]1c1ccc(C#N)nc1 [BAY-678] | similarly effective at blocking NE-induced myoblast death |  |  |  |  | 
C[C@]12C=CC(=O)C=C1CC[C@@H]1[C@@H]2[C@@H](O)C[C@@]2(C)[C@H]1CC[C@]2(O)C(=O)CO [prednisolone] |  | dramatically decreased muscle mass |  |  |  | residual force at 15 seconds after peak force (percentage of the peak force) ([3]; diaphragm strips, 20 second tetanus, FIG. 19): decline in residual force, which is greater for prednisolone alone
COc1cc(C(C)C)c2c(c1)S(=O)(=O)N(COc1cc(=O)n3cccc(OCCN4CCCCC4)c3n1)C2=O [SSR69071] | similarly effective at blocking NE-induced myoblast death |  | similarly potent | similarly effective at rescuing NE-induced myoblast cell death; also recorded: similarly effective at blocking NE-induced myoblast death | most effective against human NE | 
Cc1c(-c2ccnn2C)cc(C(=O)NCc2ccc(S(C)(=O)=O)cn2)c(=O)n1-c1cccc(C(F)(F)F)c1 [Alvelestat] | similarly effective at blocking NE-induced myoblast death | increased it | similarly potent | similarly effective at rescuing NE-induced myoblast cell death; also recorded: similarly effective at blocking NE-induced myoblast death | most effective against human NE | prednisolone efficacy [5]: enhances prednisolone efficacy; myofiber necrosis ([6]; alvelestat alone, 10 and 25 mg/kg/day): decreases myofiber necrosis in a dose-dependent manner; also recorded: reduces necrosis; myofiber necrosis / myofiber stability ([6]; combined with prednisolone 1 mg/kg/day): additive affect on myofiber stability; inflammation (immune response transcripts) [7]: does not significantly affect inflammation; muscle fibrosis ([8]; alone): decreases muscle fibrosis; prednisolone-induced fibrosis ([8]; in combination with prednisolone): prevents prednisolone-induced fibrosis; serum mCK levels (muscle damage) [9]: lowers serum mCK levels; prednisolone-induced loss of muscle mass / muscle atrophy [2]: partly rescued the prednisolone-induced loss of muscle mass in a dose-dependent manner that appears inversely correlated; prednisolone-induced loss of muscle mass / muscle atrophy ([2]; listed as AZD9668): reduces prednisolone induced muscle atrophy; diaphragm weakness (specific tetanic force, residual force) ([3]; alone and in combination with prednisolone, FIGS. 17-19): affects diaphragm weakness independent of muscle loss in a complex manner
